According to patent publication US20260118357A1, “TETRA-FUNCTIONAL CHEMICAL PROBE AND METHOD FOR IDENTIFYING TARGET MEMBRANE PROTEIN FROM LIVING CELL OR LIVING TISSUE BY USING SAID PROBE” (priority 2019, published 2026):

Columns and labels:
Assay type in all cases: cell-based
[1] = system: GABA receptor subunits (Gabra1, Gabra2, Gabra5, Gabrg2); assay: Isolation and detection of target molecule from living tissue (brain slices) using the probe, LC-MS; details: DBA/2CrSlc mouse brain slices, CPF-202 302 nm UV 1 minute, CPF-242 365 nm UV 15 minutes, FIGS. 3 and 4
Experimental: (§1) A DBA/2CrSlc mouse was anesthetized by isoflurane inhalation and then decapitated, and the brain was quickly removed. The removed brain was immersed in artificial cerebrospinal fluid (ACSF) at 0° C. for 60 seconds while being continuously bubbled with a gas mixture (95% O2, 5% CO2). The olfactory bulb and cerebellum were removed with a scalpel, and the brain was fixed to the stage of a vibrating blade microtome (Leica, VT1200) using instant glue. Sliced sections (thin sections having a thickness of 0.3 mm) of the brain containing the striatum and hippocampus were prepared in ACSF at 0° C. continuously bubbled with the gas mixture. The sliced sections were placed in a dish containing artificial cerebrospinal fluid. An unmodified ligand or DMSO was added, and the dish was allowed to stand at room temperature for 5 minutes. Subsequently, compound (CPF-224) produced in Production Example 10 or compound (CPF-202) produced in Production Example 8 was added, and the dish was allowed to stand at room temperature for 30 minutes. The solution was removed, and the sliced sections were irradiated with UV light (in the cases of CPF-224 and CPF-202, 302 nm UV light for 1 minute; in the case of CPF242, 365 nm UV light for 15 minutes). The sliced sections were washed and collected with PBS, and the supernatant was removed by centrifugation (3000×g, 4° C., 5 minutes). The obtained pellets were analyzed by the same method as in Test Example 1. The analysis was performed in two independent tests, and the results can be expressed as a ratio relative to those in the group treated with the unmodified ligand.

[2] = system: AMPA-type glutamate receptors (Gria1, Gria2, Gria3, Gria4); assay: as above; details: DBA/2CrSlc mouse brain slices, 302 nm UV 1 minute, two independent tests, FIG. 2
Experimental: as §1

[3] = target: T1, human dopamine receptor D2 (DRD2) (Homo sapiens, UniProt P14416); assay: Isolation and detection of target molecule from living cells using the probe (UV crosslinking, streptavidin enrichment, LC-MS); details: CHO-K1 cells stably expressing human DRD2; 302 nm UV 1 minute; LC-MS LFQ; two independent tests; FIG. 1
T1 construct: expressed in transfected cells; host or cells: CHO-K1
Experimental: CHO-K1 cells stably expressing human dopamine receptor D2 (DRD2) were cultured on a 10-cm plate until they became confluent.
The cells were washed with a medium, and the medium was replaced with a medium containing DMSO or an unmodified ligand, followed by a reaction for 30 minutes. Subsequently, the medium was discarded and replaced with a medium containing compound (CPP-127) synthesized in Production Example 12, and the cells were allowed to stand at 37° C. for 30 minutes. The medium was discarded, and the cells were washed with PBS. PBS (1 ml) was added to the cells on the plate, and then the cells were irradiated with 302 nm UV light for 1 minute using a UV crosslinker. The cells were collected with a cell scraper after UV irradiation, and the collected cell pellets were cryopreserved at −80° C.
The cryopreserved cells were suspended in 50 mM Tris Homogenate Buffer (pH 7.4, 2.5 mM EDTA, 5 mM MgCl2, 320 mM sucrose) and homogenized using a sonicator. […]
The obtained tryptic digest was desalted and purified, and protein analysis was performed by LC-MS. […] A full scan MS spectrum was acquired in the m/z range of 380 to 1600, and a product ion spectrum was measured in data dependent acquisition mode. The data obtained by LC-MS were analyzed by Proteome Discoverer 2.2 analysis software (PD 2.2, Thermo Fisher Scientific). […]

T1 sequence (P14416 whole entry): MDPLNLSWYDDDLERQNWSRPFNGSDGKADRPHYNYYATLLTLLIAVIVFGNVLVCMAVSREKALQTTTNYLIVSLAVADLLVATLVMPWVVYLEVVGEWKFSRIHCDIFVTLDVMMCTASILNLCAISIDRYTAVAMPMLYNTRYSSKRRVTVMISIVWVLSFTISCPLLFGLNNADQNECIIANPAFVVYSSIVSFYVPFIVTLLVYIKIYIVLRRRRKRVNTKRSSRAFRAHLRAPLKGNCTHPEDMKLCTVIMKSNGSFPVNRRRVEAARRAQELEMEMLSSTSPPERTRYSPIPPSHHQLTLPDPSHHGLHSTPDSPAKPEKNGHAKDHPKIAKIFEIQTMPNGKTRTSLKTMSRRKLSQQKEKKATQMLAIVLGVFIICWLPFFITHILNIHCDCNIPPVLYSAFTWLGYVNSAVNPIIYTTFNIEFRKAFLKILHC

SMILES: CC1(C)CC(=O)C(=C(CCOCCOCCOCCOCCNC(=O)CCCC[C@@H]2SC[C@@H]3NC(=O)N[C@@H]32)NCCCC(=O)Nc2ccc(-n3nnc(C(=O)NCCCN4C(=O)CN=C(c5ccccc5)c5cc(Cl)ccc54)n3)cc2)C(=O)C1 [CPF-202]
- detection of GABA receptor subunits compared with the group treated with the unmodified ligand [1]: specifically collected

SMILES: CC1(C)CC(=O)C(=C(CCOCCOCCOCCOCCNC(=O)CCCC[C@@H]2SC[C@@H]3NC(=O)N[C@@H]32)NCCCC(=O)Nc2ccc(-n3nnc(C(=O)NCc4ccn(-c5cc6c(cc5C(F)(F)F)[nH]c(=O)c(=O)n6CC(=O)O)c4)n3)cc2)C(=O)C1 [CPF-224]
- detection of AMPA-type glutamate receptors compared with the group treated with the unmodified ligand [2]: specifically collected

SMILES: CC1(C)CC(=O)C(=C(CCOCCOCCOCCOCCNC(=O)CCCC[C@@H]2SC[C@@H]3NC(=O)N[C@@H]32)NCCCCCNC(=O)CCC2(CCC(=O)NCCCN3C(=O)CN=C(c4ccccc4)c4cc(Cl)ccc43)N=N2)C(=O)C1 [CPF-242]
- detection of GABA receptor subunits compared with the group treated with the unmodified ligand [1]: specifically collected

SMILES: CC1(C)CC(=O)C(=C(CCOCCOCCOCCOCCNC(=O)CCCC[C@@H]2SC[C@@H]3NC(=O)N[C@@H]32)NCCCC(=O)Nc2ccc(-n3nnc(C(=O)NCCCCC(=O)NCCCN4CCc5ccc(OCCCN6CCN(c7cccc8sccc78)CC6)cc5C4=O)n3)cc2)C(=O)C1 [CPP-127]
- detection of dopamine receptor D2 compared with the group treated with the unmodified ligand [3]: specifically collected
